According to the kinase profiling compilation of Christmann-Franck et al. (2016):

Biological target: MARK3 (human) (UniProt P27448)
Experiment: radiometric filter-binding kinase assay, Kinase HotSpot
Conditions: compound 0.5 µM; ATP 10 µM

Sequence of MARK3 (human) (P27448 whole entry, looked up): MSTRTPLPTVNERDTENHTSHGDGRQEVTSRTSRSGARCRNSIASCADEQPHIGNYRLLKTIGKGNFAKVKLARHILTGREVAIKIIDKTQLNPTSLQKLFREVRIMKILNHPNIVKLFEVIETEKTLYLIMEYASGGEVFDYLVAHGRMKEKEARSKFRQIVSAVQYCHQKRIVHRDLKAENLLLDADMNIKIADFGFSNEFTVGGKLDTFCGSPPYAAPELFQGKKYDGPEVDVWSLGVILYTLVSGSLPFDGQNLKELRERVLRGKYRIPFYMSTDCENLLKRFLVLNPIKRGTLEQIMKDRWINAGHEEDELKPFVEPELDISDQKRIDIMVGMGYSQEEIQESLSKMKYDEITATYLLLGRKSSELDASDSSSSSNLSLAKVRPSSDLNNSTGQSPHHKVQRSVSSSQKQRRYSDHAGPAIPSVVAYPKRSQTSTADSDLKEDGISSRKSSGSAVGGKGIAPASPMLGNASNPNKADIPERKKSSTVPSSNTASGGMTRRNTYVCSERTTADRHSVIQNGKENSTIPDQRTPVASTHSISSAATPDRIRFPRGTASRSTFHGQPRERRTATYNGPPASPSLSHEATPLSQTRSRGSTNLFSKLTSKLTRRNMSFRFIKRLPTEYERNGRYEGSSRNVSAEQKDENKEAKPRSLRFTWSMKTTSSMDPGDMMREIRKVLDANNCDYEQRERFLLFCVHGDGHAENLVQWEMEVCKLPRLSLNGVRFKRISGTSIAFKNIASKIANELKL

SMILES	residual activity [%]
CCc1nc(-c2ccc(OC)cc2)[nH]c1-c1ccncc1	101
O=C(O)c1ccc2c3c1cccc3c(=O)n1c3ccccc3nc21	82.6
Cc1cc(Nc2nc(-c3ccccc3)nc3ccccc23)n[nH]1	89
FC(F)(F)c1ccc(/C=C/c2nc(COc3ccc(CCCCn4ccnn4)cc3)co2)cc1	96.6

Biological target: MET (human) (UniProt P08581)
Experiment: as above
Conditions: compound 0.5 µM; ATP 10 µM

SMILES	residual activity [%]
CCc1nc(-c2ccc(OC)cc2)[nH]c1-c1ccncc1	97.7
O=C(O)c1ccc2c3c1cccc3c(=O)n1c3ccccc3nc21	104
Cc1cc(Nc2nc(-c3ccccc3)nc3ccccc23)n[nH]1	130
FC(F)(F)c1ccc(/C=C/c2nc(COc3ccc(CCCCn4ccnn4)cc3)co2)cc1	95.1

Biological target: MUSK (human) (UniProt O15146)
Experiment: as above
Conditions: compound 0.5 µM; ATP 10 µM

SMILES	residual activity [%]
CCc1nc(-c2ccc(OC)cc2)[nH]c1-c1ccncc1	85.9
O=C(O)c1ccc2c3c1cccc3c(=O)n1c3ccccc3nc21	47.1
Cc1cc(Nc2nc(-c3ccccc3)nc3ccccc23)n[nH]1	51
FC(F)(F)c1ccc(/C=C/c2nc(COc3ccc(CCCCn4ccnn4)cc3)co2)cc1	104

Biological target: NEK11 (human) (UniProt Q8NG66)
Experiment: as above
Conditions: compound 0.5 µM; ATP 10 µM

SMILES	residual activity [%]
CCc1nc(-c2ccc(OC)cc2)[nH]c1-c1ccncc1	77.4
O=C(O)c1ccc2c3c1cccc3c(=O)n1c3ccccc3nc21	83
Cc1cc(Nc2nc(-c3ccccc3)nc3ccccc23)n[nH]1	105
FC(F)(F)c1ccc(/C=C/c2nc(COc3ccc(CCCCn4ccnn4)cc3)co2)cc1	97.6

Biological target: NLK (human) (UniProt Q9UBE8)
Experiment: as above
Conditions: compound 0.5 µM; ATP 10 µM

SMILES	residual activity [%]
CCc1nc(-c2ccc(OC)cc2)[nH]c1-c1ccncc1	103
O=C(O)c1ccc2c3c1cccc3c(=O)n1c3ccccc3nc21	96.1
Cc1cc(Nc2nc(-c3ccccc3)nc3ccccc23)n[nH]1	94.7
FC(F)(F)c1ccc(/C=C/c2nc(COc3ccc(CCCCn4ccnn4)cc3)co2)cc1	101

Biological target: NTRK3 (human) (UniProt Q16288)
Experiment: as above
Conditions: compound 0.5 µM; ATP 10 µM

SMILES	residual activity [%]
CCc1nc(-c2ccc(OC)cc2)[nH]c1-c1ccncc1	103
O=C(O)c1ccc2c3c1cccc3c(=O)n1c3ccccc3nc21	67.1
Cc1cc(Nc2nc(-c3ccccc3)nc3ccccc23)n[nH]1	2.01
FC(F)(F)c1ccc(/C=C/c2nc(COc3ccc(CCCCn4ccnn4)cc3)co2)cc1	98.9

Biological target: PAK2 (human) (UniProt Q13177)
Sequence (Q13177 whole entry, looked up): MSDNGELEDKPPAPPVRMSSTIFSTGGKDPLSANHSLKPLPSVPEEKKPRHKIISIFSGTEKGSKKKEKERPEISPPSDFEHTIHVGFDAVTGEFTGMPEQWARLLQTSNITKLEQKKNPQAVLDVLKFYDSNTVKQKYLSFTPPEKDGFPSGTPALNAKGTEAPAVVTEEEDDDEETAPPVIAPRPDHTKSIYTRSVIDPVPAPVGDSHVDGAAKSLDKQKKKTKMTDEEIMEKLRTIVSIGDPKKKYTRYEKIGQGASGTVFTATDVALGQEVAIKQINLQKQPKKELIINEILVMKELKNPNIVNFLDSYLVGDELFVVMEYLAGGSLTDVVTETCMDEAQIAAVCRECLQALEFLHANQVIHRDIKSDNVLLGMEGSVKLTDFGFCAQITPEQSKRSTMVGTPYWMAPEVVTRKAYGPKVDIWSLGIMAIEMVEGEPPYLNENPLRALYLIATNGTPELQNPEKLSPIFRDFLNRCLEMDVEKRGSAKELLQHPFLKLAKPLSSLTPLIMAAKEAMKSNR
Experiment: as above
Conditions: compound 0.5 µM; ATP 10 µM

SMILES	residual activity [%]
CCc1nc(-c2ccc(OC)cc2)[nH]c1-c1ccncc1	90.7
O=C(O)c1ccc2c3c1cccc3c(=O)n1c3ccccc3nc21	97
Cc1cc(Nc2nc(-c3ccccc3)nc3ccccc23)n[nH]1	91.8
FC(F)(F)c1ccc(/C=C/c2nc(COc3ccc(CCCCn4ccnn4)cc3)co2)cc1	113

Biological target: PAK3 (human) (UniProt O75914)
Sequence (O75914 whole entry, looked up): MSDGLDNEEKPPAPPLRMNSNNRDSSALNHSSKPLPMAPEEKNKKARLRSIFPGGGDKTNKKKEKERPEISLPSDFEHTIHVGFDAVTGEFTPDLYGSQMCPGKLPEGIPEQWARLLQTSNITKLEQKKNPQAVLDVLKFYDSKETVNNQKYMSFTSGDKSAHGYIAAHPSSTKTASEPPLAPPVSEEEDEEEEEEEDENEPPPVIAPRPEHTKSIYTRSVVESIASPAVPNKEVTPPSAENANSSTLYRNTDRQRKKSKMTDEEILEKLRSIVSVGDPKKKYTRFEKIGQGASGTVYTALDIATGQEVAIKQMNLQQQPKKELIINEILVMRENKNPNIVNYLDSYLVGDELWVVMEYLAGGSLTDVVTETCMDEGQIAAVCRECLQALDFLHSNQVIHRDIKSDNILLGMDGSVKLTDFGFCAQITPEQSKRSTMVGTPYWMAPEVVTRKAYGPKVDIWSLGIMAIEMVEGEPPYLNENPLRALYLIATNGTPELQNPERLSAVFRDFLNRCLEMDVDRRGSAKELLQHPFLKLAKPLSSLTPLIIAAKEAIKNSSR
Experiment: as above
Conditions: compound 0.5 µM; ATP 10 µM

SMILES	residual activity [%]
CCc1nc(-c2ccc(OC)cc2)[nH]c1-c1ccncc1	103
O=C(O)c1ccc2c3c1cccc3c(=O)n1c3ccccc3nc21	97.6
Cc1cc(Nc2nc(-c3ccccc3)nc3ccccc23)n[nH]1	90.2
FC(F)(F)c1ccc(/C=C/c2nc(COc3ccc(CCCCn4ccnn4)cc3)co2)cc1	101

Biological target: PBK (human) (UniProt Q96KB5)
Experiment: as above
Conditions: compound 0.5 µM; ATP 10 µM

SMILES	residual activity [%]
CCc1nc(-c2ccc(OC)cc2)[nH]c1-c1ccncc1	104
O=C(O)c1ccc2c3c1cccc3c(=O)n1c3ccccc3nc21	97.5
Cc1cc(Nc2nc(-c3ccccc3)nc3ccccc23)n[nH]1	95.4
FC(F)(F)c1ccc(/C=C/c2nc(COc3ccc(CCCCn4ccnn4)cc3)co2)cc1	99.9

Biological target: PDGFRA (human) (UniProt P16234)
Experiment: as above
Conditions: compound 0.5 µM; ATP 10 µM

SMILES	residual activity [%]
CCc1nc(-c2ccc(OC)cc2)[nH]c1-c1ccncc1	96.3
O=C(O)c1ccc2c3c1cccc3c(=O)n1c3ccccc3nc21	94.4
Cc1cc(Nc2nc(-c3ccccc3)nc3ccccc23)n[nH]1	81.6
FC(F)(F)c1ccc(/C=C/c2nc(COc3ccc(CCCCn4ccnn4)cc3)co2)cc1	104

Biological target: PHKG1 (human) (UniProt Q16816)
Sequence (Q16816 whole entry, looked up): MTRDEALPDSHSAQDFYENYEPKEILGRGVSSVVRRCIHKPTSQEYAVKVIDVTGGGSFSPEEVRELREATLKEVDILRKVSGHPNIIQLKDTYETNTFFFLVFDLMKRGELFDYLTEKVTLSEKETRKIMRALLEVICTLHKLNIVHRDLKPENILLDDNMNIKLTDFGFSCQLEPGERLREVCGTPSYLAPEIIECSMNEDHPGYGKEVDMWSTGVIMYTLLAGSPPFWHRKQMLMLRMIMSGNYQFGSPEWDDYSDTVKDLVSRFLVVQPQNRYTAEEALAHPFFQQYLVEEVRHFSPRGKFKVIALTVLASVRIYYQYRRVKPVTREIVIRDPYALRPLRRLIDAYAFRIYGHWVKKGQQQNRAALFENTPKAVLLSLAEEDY
Experiment: as above
Conditions: compound 0.5 µM; ATP 10 µM

SMILES	residual activity [%]
CCc1nc(-c2ccc(OC)cc2)[nH]c1-c1ccncc1	97
O=C(O)c1ccc2c3c1cccc3c(=O)n1c3ccccc3nc21	91.5
Cc1cc(Nc2nc(-c3ccccc3)nc3ccccc23)n[nH]1	71.7
FC(F)(F)c1ccc(/C=C/c2nc(COc3ccc(CCCCn4ccnn4)cc3)co2)cc1	92.9

Biological target: PLK2 (human) (UniProt Q9NYY3)
Sequence (Q9NYY3 whole entry, looked up): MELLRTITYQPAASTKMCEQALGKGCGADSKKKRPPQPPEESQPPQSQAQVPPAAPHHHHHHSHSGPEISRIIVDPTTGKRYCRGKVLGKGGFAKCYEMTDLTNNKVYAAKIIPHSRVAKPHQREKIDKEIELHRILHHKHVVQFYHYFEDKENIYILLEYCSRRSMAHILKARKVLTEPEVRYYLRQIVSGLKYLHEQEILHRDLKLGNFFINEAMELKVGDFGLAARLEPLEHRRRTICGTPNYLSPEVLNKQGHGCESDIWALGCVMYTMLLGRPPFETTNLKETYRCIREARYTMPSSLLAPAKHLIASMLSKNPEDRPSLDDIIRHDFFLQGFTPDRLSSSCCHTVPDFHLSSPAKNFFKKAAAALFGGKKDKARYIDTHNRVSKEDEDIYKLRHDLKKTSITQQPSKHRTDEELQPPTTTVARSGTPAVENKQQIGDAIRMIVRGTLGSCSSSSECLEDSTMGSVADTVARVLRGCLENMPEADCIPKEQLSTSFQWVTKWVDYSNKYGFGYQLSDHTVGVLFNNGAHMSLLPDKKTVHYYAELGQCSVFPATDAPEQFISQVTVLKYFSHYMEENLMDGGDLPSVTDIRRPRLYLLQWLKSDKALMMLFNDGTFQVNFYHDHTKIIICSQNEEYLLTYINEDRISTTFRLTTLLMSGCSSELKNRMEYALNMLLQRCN
Experiment: as above
Conditions: compound 0.5 µM; ATP 10 µM

SMILES	residual activity [%]
CCc1nc(-c2ccc(OC)cc2)[nH]c1-c1ccncc1	101
O=C(O)c1ccc2c3c1cccc3c(=O)n1c3ccccc3nc21	97
Cc1cc(Nc2nc(-c3ccccc3)nc3ccccc23)n[nH]1	110
FC(F)(F)c1ccc(/C=C/c2nc(COc3ccc(CCCCn4ccnn4)cc3)co2)cc1	99.7

Biological target: PRKCB2 (human) (UniProt P05771)
Experiment: as above
Conditions: compound 0.5 µM; ATP 10 µM

SMILES	residual activity [%]
CCc1nc(-c2ccc(OC)cc2)[nH]c1-c1ccncc1	109
O=C(O)c1ccc2c3c1cccc3c(=O)n1c3ccccc3nc21	97
Cc1cc(Nc2nc(-c3ccccc3)nc3ccccc23)n[nH]1	87.3
FC(F)(F)c1ccc(/C=C/c2nc(COc3ccc(CCCCn4ccnn4)cc3)co2)cc1	93.1

Biological target: RET (human) (UniProt P07949)
Experiment: as above
Conditions: compound 0.5 µM; ATP 10 µM

SMILES	residual activity [%]
CCc1nc(-c2ccc(OC)cc2)[nH]c1-c1ccncc1	99.2
O=C(O)c1ccc2c3c1cccc3c(=O)n1c3ccccc3nc21	96.8
Cc1cc(Nc2nc(-c3ccccc3)nc3ccccc23)n[nH]1	8.76
FC(F)(F)c1ccc(/C=C/c2nc(COc3ccc(CCCCn4ccnn4)cc3)co2)cc1	101

Biological target: RPS6KA3 KD1 KD2 (human) (UniProt P51812)
Experiment: as above
Conditions: compound 0.5 µM; ATP 10 µM

SMILES	residual activity [%]
CCc1nc(-c2ccc(OC)cc2)[nH]c1-c1ccncc1	98.7
O=C(O)c1ccc2c3c1cccc3c(=O)n1c3ccccc3nc21	95.5
Cc1cc(Nc2nc(-c3ccccc3)nc3ccccc23)n[nH]1	66.1
FC(F)(F)c1ccc(/C=C/c2nc(COc3ccc(CCCCn4ccnn4)cc3)co2)cc1	96.8

Biological target: RPS6KB1 (human) (UniProt P23443)
Experiment: as above
Conditions: compound 0.5 µM; ATP 10 µM

SMILES	residual activity [%]
CCc1nc(-c2ccc(OC)cc2)[nH]c1-c1ccncc1	98.4
O=C(O)c1ccc2c3c1cccc3c(=O)n1c3ccccc3nc21	95.9
Cc1cc(Nc2nc(-c3ccccc3)nc3ccccc23)n[nH]1	60.4
FC(F)(F)c1ccc(/C=C/c2nc(COc3ccc(CCCCn4ccnn4)cc3)co2)cc1	105

Biological target: SRPK1 (human) (UniProt Q96SB4)
Experiment: as above
Conditions: compound 0.5 µM; ATP 10 µM

SMILES	residual activity [%]
CCc1nc(-c2ccc(OC)cc2)[nH]c1-c1ccncc1	106
O=C(O)c1ccc2c3c1cccc3c(=O)n1c3ccccc3nc21	96.1
Cc1cc(Nc2nc(-c3ccccc3)nc3ccccc23)n[nH]1	90.1
FC(F)(F)c1ccc(/C=C/c2nc(COc3ccc(CCCCn4ccnn4)cc3)co2)cc1	98.1

Biological target: STK10 (human) (UniProt O94804)
Sequence (O94804 whole entry, looked up): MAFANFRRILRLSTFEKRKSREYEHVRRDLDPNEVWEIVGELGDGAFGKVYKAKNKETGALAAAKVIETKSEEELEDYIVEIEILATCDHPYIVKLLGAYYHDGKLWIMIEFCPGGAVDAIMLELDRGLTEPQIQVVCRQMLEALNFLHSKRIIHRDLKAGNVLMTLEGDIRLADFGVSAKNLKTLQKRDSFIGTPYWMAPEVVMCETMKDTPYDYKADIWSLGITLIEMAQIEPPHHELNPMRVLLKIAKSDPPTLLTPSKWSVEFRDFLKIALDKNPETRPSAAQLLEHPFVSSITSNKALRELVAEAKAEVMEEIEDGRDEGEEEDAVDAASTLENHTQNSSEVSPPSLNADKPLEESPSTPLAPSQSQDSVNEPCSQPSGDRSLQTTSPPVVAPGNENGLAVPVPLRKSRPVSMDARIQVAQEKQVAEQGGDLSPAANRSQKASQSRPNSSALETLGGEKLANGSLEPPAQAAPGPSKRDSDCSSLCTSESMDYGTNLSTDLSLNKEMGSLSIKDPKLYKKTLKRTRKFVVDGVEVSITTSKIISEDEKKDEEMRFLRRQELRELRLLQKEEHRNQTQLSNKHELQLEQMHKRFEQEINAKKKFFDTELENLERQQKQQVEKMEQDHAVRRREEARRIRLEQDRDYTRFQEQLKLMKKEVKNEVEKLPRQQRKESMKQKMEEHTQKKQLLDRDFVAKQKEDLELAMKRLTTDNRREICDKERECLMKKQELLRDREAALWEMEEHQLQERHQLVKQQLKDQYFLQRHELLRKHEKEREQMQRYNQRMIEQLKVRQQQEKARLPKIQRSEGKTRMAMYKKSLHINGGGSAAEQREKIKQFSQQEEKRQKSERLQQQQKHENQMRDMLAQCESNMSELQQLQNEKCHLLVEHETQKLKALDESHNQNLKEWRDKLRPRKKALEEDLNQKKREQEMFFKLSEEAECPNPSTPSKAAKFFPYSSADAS
Experiment: as above
Conditions: compound 0.5 µM; ATP 10 µM

SMILES	residual activity [%]
CCc1nc(-c2ccc(OC)cc2)[nH]c1-c1ccncc1	96.8
O=C(O)c1ccc2c3c1cccc3c(=O)n1c3ccccc3nc21	88.6
Cc1cc(Nc2nc(-c3ccccc3)nc3ccccc23)n[nH]1	56.2
FC(F)(F)c1ccc(/C=C/c2nc(COc3ccc(CCCCn4ccnn4)cc3)co2)cc1	92.6

Biological target: TSSK1B (human) (UniProt Q9BXA7)
Experiment: as above
Conditions: compound 0.5 µM; ATP 10 µM

SMILES	residual activity [%]
CCc1nc(-c2ccc(OC)cc2)[nH]c1-c1ccncc1	106
O=C(O)c1ccc2c3c1cccc3c(=O)n1c3ccccc3nc21	112
Cc1cc(Nc2nc(-c3ccccc3)nc3ccccc23)n[nH]1	76.7
FC(F)(F)c1ccc(/C=C/c2nc(COc3ccc(CCCCn4ccnn4)cc3)co2)cc1	93.4

Biological target: ULK1 (human) (UniProt O75385)
Experiment: as above
Conditions: compound 0.5 µM; ATP 10 µM

SMILES	residual activity [%]
CCc1nc(-c2ccc(OC)cc2)[nH]c1-c1ccncc1	84.5
O=C(O)c1ccc2c3c1cccc3c(=O)n1c3ccccc3nc21	83.5
Cc1cc(Nc2nc(-c3ccccc3)nc3ccccc23)n[nH]1	81.1
FC(F)(F)c1ccc(/C=C/c2nc(COc3ccc(CCCCn4ccnn4)cc3)co2)cc1	87.2

Biological target: ULK2 (human) (UniProt Q8IYT8)
Sequence (Q8IYT8 whole entry, looked up): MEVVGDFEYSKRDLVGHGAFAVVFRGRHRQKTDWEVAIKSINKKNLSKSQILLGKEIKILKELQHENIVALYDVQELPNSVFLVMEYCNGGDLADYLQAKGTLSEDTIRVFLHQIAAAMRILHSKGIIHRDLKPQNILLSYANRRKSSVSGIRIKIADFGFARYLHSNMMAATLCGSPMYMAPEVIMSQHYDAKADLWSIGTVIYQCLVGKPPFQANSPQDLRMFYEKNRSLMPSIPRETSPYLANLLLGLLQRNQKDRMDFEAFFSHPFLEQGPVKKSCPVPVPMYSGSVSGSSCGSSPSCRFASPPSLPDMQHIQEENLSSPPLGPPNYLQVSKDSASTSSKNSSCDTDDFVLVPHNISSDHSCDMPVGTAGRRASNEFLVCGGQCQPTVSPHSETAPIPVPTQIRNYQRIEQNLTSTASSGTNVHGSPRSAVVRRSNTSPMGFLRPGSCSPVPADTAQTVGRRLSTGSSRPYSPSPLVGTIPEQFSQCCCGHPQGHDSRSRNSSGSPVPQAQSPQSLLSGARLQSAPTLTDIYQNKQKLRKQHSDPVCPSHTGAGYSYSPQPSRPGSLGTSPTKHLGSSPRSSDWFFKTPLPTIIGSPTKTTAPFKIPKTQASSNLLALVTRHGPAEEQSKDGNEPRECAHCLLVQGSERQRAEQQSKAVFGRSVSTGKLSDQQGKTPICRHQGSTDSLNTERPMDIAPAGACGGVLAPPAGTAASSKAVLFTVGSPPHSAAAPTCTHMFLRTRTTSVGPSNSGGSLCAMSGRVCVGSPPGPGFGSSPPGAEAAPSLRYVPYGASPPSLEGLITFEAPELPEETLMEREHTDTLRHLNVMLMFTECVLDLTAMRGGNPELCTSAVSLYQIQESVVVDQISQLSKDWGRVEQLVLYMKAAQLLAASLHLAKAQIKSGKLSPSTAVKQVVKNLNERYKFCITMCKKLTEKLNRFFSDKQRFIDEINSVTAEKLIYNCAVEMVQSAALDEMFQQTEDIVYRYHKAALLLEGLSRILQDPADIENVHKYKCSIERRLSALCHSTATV
Experiment: as above
Conditions: compound 0.5 µM; ATP 10 µM

SMILES	residual activity [%]
CCc1nc(-c2ccc(OC)cc2)[nH]c1-c1ccncc1	98
O=C(O)c1ccc2c3c1cccc3c(=O)n1c3ccccc3nc21	93.9
Cc1cc(Nc2nc(-c3ccccc3)nc3ccccc23)n[nH]1	95.1
FC(F)(F)c1ccc(/C=C/c2nc(COc3ccc(CCCCn4ccnn4)cc3)co2)cc1	99.6
